Series [1] deals with Chikungunya virus (CHIKV) strain SL15649. Put plainly: CHIKV-infected mice, 5 days oral treatment: tissue viral loads.
Series [2] has as its system VEEV (TC-83). Put plainly: microbe, parasite or virus in culture. The following applies: Venezuelan equine encephalitis virus, read-out: VEEV EC50. It counts as cell-based.
For series [3], the system named is VEEV. Put plainly: microbe, parasite or virus in culture. In kind it is cell-based. The following applies: Venezuelan equine encephalitis virus, NHDF; for EC90: read-out: VEEV EC90; for log reduction at 10 µM: read-out: VEEV VTR.
The test system of series [4] is Chikungunya virus (CHIKV) strain SL15649. Put plainly: CHIKV-infected mice, 10 days oral treatment: footpad swelling and viremia.
Series [5] relates to CHIKV. In words: CHIKV virus titer reduction (VTR) assay in NHDF cells. It counts as cell-based. The conditions noted are these: Chikungunya virus; for log reduction at 10 µM: CHIKV titer reduction at 10 μM, normal human dermal fibroblasts (NHDF) cells; for EC90: effective concentration of 90% inhibition of virus in a VTR assay, NHDF cells.
Series [6] is described as follows: in vitro. The following applies: human.
Series [7] has as its system CHIKV linked NanoLuc luciferase reporter. Put plainly: microbe, parasite or virus in culture. In kind it is cell-based. The conditions noted are these: Chikungunya virus, read-out: CHIKV EC50.

From US11932626B2, “2-pyrimidone analogs as potent antiviral agents against Alphaviruses” (priority 2020, dated 2024) come the findings set out here.

Regarding `O=C(COc1cc[nH]c(=O)n1)NC12CC3CC(CC(C3)C1)C2` [Compound No. 7, N-(Adamantan-1-Yl)-2-((2-Oxo-1,2-Dihydropyrimidin-4-Yl)Oxy)Acetamide], the Adverse toxicity entry in series [1] (mice treated three times per day for 5 days per os) and in series [4] (mice treated three times per day for 10 days per os) was “No adverse toxicity was observed” in each case. Further, the “Infectious viral loads in Ipsilateral ankle” value in series [1] (mice, 40 mg/kg 3× daily p.o., 5 dpi, p<0.0001) is reported as “reduced infectious viral loads”. Also, in series [1] (mice, 40 mg/kg 3× daily p.o., 5 dpi, p=0.0009), the “Infectious viral loads in Contralateral ankle” value is “reduced infectious viral loads”. The results for the concentration for a half-maximal effect (EC50) in series [2] and in series [7] were 38.8 µM and 3.2 µM, respectively. For the same molecule, the 90% effect concentration (EC90) (commonly the concentration at which the effect reaches the 90% level) in series [3] was determined as 1.1 µM; in series [5], 0.7 µM. Also, the log reduction at 10 µM turned out to be 1.79 in series [3] and 3.68 in series [5]. In series [4] (mice, 40 mg/kg 3× daily p.o., days 3-8, compared to vehicle treated mice), the “Footpad swelling in the ipsilateral foot” value was “reduced swelling in the ipsilateral foot at days 3, 4, 5, 6, 7, and 8”. The “Viral loads in serum” value in series [4] (mice, 40 mg/kg 3× daily p.o., serum at 3 days post infection, p=0.0003) is recorded as “did not have detectable viral loads in serum samples”. The Tissue distribution entry in series [4] (mice, per os three times per day) was “distributed to a number of tissue types including joints and muscles”. In series [6], this molecule gave a CC50 greater than 40 µM.

In the case of `O=C(COc1cc(Oc2ccc(F)cc2)[nH]c(=O)n1)NC12CC3CC(CC(C3)C1)C2` [compound 37, N-(adamantan-1-yl)-2-((6-(4-fluorophenoxy)-2-oxo-1,2-dihydropyrimidin-4-yl)oxy)acetamide], the EC50 in series [2] and in series [7] was greater than 40 µM each time. Besides, the EC90 in series [3] and in series [5] was greater than 10 µM in each case. Besides, the values for the log reduction at 10 µM in series [3] and in series [5] were 0.8 and 0, respectively. Also, the CC50 in series [6] is greater than 40 µM.

Regarding `Cc1[nH]c(=O)nc(SCC(=O)NC23CC4CC(CC(C4)C2)C3)c1C(=O)O` [compound 38, 4-((2-((Adamantan-1-Yl)Amino)-2-Oxoethyl)Thio)-6-Methyl-2-Oxo-1,2-Dihydropyrimidine-5-Carboxylic Acid], the EC50 in series [2] and in series [7] was greater than 40 µM throughout. The log reduction at 10 µM in series [3] worked out at 0.23; in series [5], 1.19. Besides, the CC50 in series [6] is greater than 40 µM.

For `CC(C)Oc1cc(OCC(=O)NC23CC4CC(CC(C4)C2)C3)nc(=O)[nH]1` [compound 45, N-(Adamantan-1-Yl)-2-((6-Isopropoxy-2-Oxo-1,2-Dihydropyrimidin-4-Yl)Oxy)Acetamide], the EC50 (in general, the concentration that produces a half-maximal response) in series [2] was found to be 8.95 µM; in series [7], 0.429 µM. Also, the EC90 in series [3] came to 0.98 µM; in series [5] it was 0.08 µM. The values for the log reduction at 10 µM in series [3] and in series [5] were 2.62 and 5.58, respectively. In addition, the CC50 in series [6] is greater than 40 µM.

Consider `COc1[nH]c(=O)nc(OCC(=O)NC23CC4CC(CC(C4)C2)C3)c1F` [compound 46, N-(adamantan-1-yl)-2-((5-fluoro-6-methoxy-2-oxo-1,2-dihydropyrimidin-4-yl)oxy)acetamide], for which the EC50 in series [2] and in series [7] was greater than 40 µM each time. The EC90 in series [3] and in series [5] was greater than 10 µM throughout. In addition, the log reduction at 10 µM amounted to 0 in series [3] and 0.42 in series [5]. Further, the CC50 in series [6] was greater than 40 µM.

As for `O=C(COc1cc(OC2CC(F)(F)C2)[nH]c(=O)n1)NC12CC3CC(CC(C3)C1)C2` [compound 47, N-(Adamantan-1-Yl)-2-((6-(3,3-Difluorocyclobutoxy)-2-Oxo-1,2-Dihydropyrimidin-4-Yl)Oxy)Acetamide], the EC50 was greater than 40 µM in series [2] and 6.78 µM in series [7]. For the same molecule, the EC90 in series [3] was greater than 10 µM; in series [5], 0.8 µM. Moreover, the log reduction at 10 µM is 0.28 in series [3] and 5.66 in series [5]. Also, the CC50 in series [6] is greater than 40 µM.

Consider `O=C(COc1cc(OC2CC2)[nH]c(=O)n1)NC12CC3CC(CC(C3)C1)C2` [compound 48, N-(Adamantan-1-Yl)-2-((6-Cyclopropoxy-2-Oxo-1,2-Dihydropyrimidin-4-Yl)Oxy)Acetamide], for which the values for the EC50 in series [2] and in series [7] were 3.77 µM and 0.283 µM, respectively. The EC90 was found to be 0.65 µM in series [3] and 0.06 µM in series [5]. In addition, the log reduction at 10 µM in series [3] was found to be 3.28; in series [5] it was 5.51. Besides, the CC50 in series [6] was greater than 40 µM.

For the molecule `COCCOc1cc(OCC(=O)NC23CC4CC(CC(C4)C2)C3)nc(=O)[nH]1` [compound 49, N-(Adamantan-1-Yl)-2-((6-(2-Methoxyethoxy)-2-Oxo-1,2-Dihydropyrimidin-4-Yl)Oxy)Acetamide], the concentration for a half-maximal effect (EC50) stood at 38.6 µM in series [2] and 3.08 µM in series [7]. For the same molecule, the EC90 in series [3] was greater than 10 µM; in series [5], 1.3 µM. In addition, the results for the log reduction at 10 µM in series [3] and in series [5] were 0 and 3.73, respectively. This molecule gave a CC50 in series [6] greater than 40 µM.

With `O=C(COc1nc(=O)[nH]c(OCCO)c1F)NC12CC3CC(CC(C3)C1)C2` [compound 50, N-(adamantan-1-yl)-2-((5-fluoro-6-(2-hydroxyethoxy)-2-oxo-1,2-dihydropyrimidin-4-yl)oxy)acetamide], the concentration giving a half-maximal response (EC50) in series [2] was greater than 40 µM; in series [7] it was 25.4 µM. The EC90 in series [3] and in series [5] was greater than 10 µM throughout. Besides, the values for the log reduction at 10 µM in series [3] and in series [5] were 0.5 and 0, respectively. The same molecule showed a CC50 in series [6] greater than 40 µM.

Regarding `CC(C)(C)COc1cc(OCC(=O)NC23CC4CC(CC(C4)C2)C3)nc(=O)[nH]1` [compound 51, N-(Adamantan-1-Yl)-2-((6-(Neopentyloxy)-2-Oxo-1,2-Dihydropyrimidin-4-Yl)Oxy)Acetamide], the results for the EC50 in series [2] and in series [7] were greater than 40 µM and 7.43 µM, respectively. The EC90 in series [3] came to 0.1 µM; in series [5], 0.75 µM. Besides, the figures for the log reduction at 10 µM in series [3] and in series [5] were 3.85 and 3.77, respectively. Further, the CC50 in series [6] is greater than 40 µM.

As for `CC(C)(C#N)COc1cc(OCC(=O)NC23CC4CC(CC(C4)C2)C3)nc(=O)[nH]1` [compound 52, N-(Adamantan-1-Yl)-2-((6-(2-Cyano-2-Methylpropoxy)-2-Oxo-1,2-Dihydropyrimidin-4-Yl)Oxy)Acetamide], the EC50 was greater than 40 µM in series [2] and 13.7 µM in series [7]. The EC90 in series [3] and in series [5] was 2.5 µM each time. Besides, the log reduction at 10 µM was 2.5 in series [3] and 2.42 in series [5]. The same molecule displayed a CC50 in series [6] greater than 40 µM.

Regarding `CCOc1cc(OCC(=O)NC23CC4CC(CC(C4)C2)C3)nc(=O)[nH]1` [compound 55, N-(Adamantan-1-Yl)-2-((6-Ethoxy-2-Oxo-1,2-Dihydropyrimidin-4-Yl)Oxy)Acetamide], the figures for the 50% effective concentration (EC50) in series [2] and in series [7] were 2.78 µM and 0.179 µM, respectively. Also, the concentration for an effect of 90% (EC90) in series [3] was greater than 10 µM; in series [5], 0.14 µM. Besides, the log reduction at 10 µM in series [3] amounted to 0.05; in series [5], 4. Moreover, the CC50 in series [6] is greater than 40 µM.

On to `CCC(C)Oc1cc(OCC(=O)NC23CC4CC(CC(C4)C2)C3)nc(=O)[nH]1` (stereo not drawn) [compound 56, N-(adamantan-1-yl)-2-((6-(sec-butoxy)-2-oxo-1,2-dihydropyrimidin-4-yl)oxy)acetamide], for which the EC50 in series [2] came to 16.2 µM; in series [7], 0.701 µM. The 90% effect concentration (EC90) in series [3] was greater than 10 µM; in series [5], 0.17 µM. The log reduction at 10 µM in series [3] is 0; in series [5], 6.6. The CC50 in series [6] was greater than 40 µM.
